Laboratory results reported in ChEMBL document CHEMBL1201862, “PubChem BioAssay data set” (2004).
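48-hour exposure; five concentrations; linearly interpolated endpoints. GI50: concentration for 50% inhibition of growth.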 Activity calls are given as the source filed them. Cut-off read from the data, not from the text of the source: active = GI50 up to about 1.1 µM and inactive = higher.

Key:
Test in all cases: inhibition of tumour cell growth, NCI panel, 48 h
[1] = test system: EKVX
[2] = test system: HT-29
[3] = test system: IGROV-1
[4] = test system: SF-539
[5] = test system: NCI-H23
[6] = test system: SK-OV-3
[7] = test system: OVCAR-5
[8] = test system: PC-3
[9] = test system: SN12C
[10] = test system: MCF7
[11] = test system: Malme-3M
[12] = test system: MDA-N
[13] = test system: A498
[14] = test system: CAKI-1
[15] = test system: SK-MEL-2
[16] = test system: SW-620
[17] = test system: K562
[18] = test system: MDA-MB-435
[19] = test system: SK-MEL-5
[20] = test system: U-251
[21] = test system: MOLT-4
[22] = test system: SF-295
[23] = test system: SR
[24] = test system: UACC-62
[25] = test system: NCI-H226
[26] = test system: SNB-19
[27] = test system: KM12
[28] = test system: RPMI-8226
[29] = test system: CCRF-CEM
[30] = test system: DU-145
[31] = test system: T47D
[32] = test system: ACHN
[33] = test system: HCT-116
[34] = test system: UO-31
[35] = test system: COLO 205
[36] = test system: UACC-257
[37] = test system: HOP-92
[38] = test system: MDA-MB-231
[39] = test system: Hs-578T
[40] = test system: LOX IMVI
[41] = test system: NCI-H522
[42] = test system: NCI-H460
[43] = test system: SK-MEL-28
[44] = test system: SF-268
[45] = test system: 786-0
[46] = test system: M14
[47] = test system: HCC 2998
[48] = test system: BT-549
[49] = test system: OVCAR-3
[50] = test system: HL-60
[51] = test system: NCI/ADR-RES
[52] = test system: OVCAR-4
[53] = test system: TK-10
[54] = test system: A549
[55] = test system: HCT-15
[56] = test system: OVCAR-8
[57] = test system: HOP-62
[58] = test system: SNB-75

What does the source list for `COc1ccc(C2SCC(=O)N2c2ccc(-c3ccc(-n4c(-c5ccccc5)nc5ccccc5c4=O)cc3)cc2)cc1` (stereo not drawn)?
GI50 [1]: > 100 µM (inactive); GI50 [2]: 12.7 µM (inactive); GI50 [3]: 62.2 µM (inactive); GI50 [4]: 74.8 µM (inactive); GI50 [5]: 68.9 µM (inactive); GI50 [6]: > 100 µM (inactive); GI50 [7]: 28.5 µM (inactive); GI50 [8]: 34 µM (inactive); GI50 [9]: > 100 µM (inactive); GI50 [10]: 26.1 µM (inactive); GI50 [11]: 48.2 µM (inactive); GI50 [12]: 65.9 µM (inactive); GI50 [13]: > 100 µM (inactive); GI50 [14]: 95.3 µM (inactive); GI50 [15]: 26.6 µM (inactive); GI50 [16]: 94.4 µM (inactive); GI50 [17]: 30.4 µM (inactive); GI50 [18]: 49.7 µM (inactive); GI50 [19]: 26.9 µM (inactive); GI50 [20]: 48.5 µM (inactive); GI50 [21]: 31.8 µM (inactive); GI50 [22]: 47 µM (inactive); GI50 [23]: 19.5 µM (inactive); GI50 [24]: 33 µM (inactive); GI50 [25]: 65.3 µM (inactive); GI50 [26]: > 100 µM (inactive); GI50 [27]: 21.1 µM (inactive); GI50 [28]: 21.6 µM (inactive); GI50 [29]: 28.6 µM (inactive); GI50 [30]: 42 µM (inactive); GI50 [31]: 21 µM (inactive); GI50 [32]: 70 µM (inactive); GI50 [33]: 57.9 µM (inactive); GI50 [34]: > 100 µM (inactive); GI50 [35]: 39 µM (inactive); GI50 [36]: > 100 µM (inactive); GI50 [37]: 15.7 µM (inactive); GI50 [38]: 54.6 µM (inactive); GI50 [39]: 25.9 µM (inactive); GI50 [40]: > 100 µM (inactive); GI50 [41]: 30.3 µM (inactive); GI50 [42]: 34.4 µM (inactive); GI50 [43]: > 100 µM (inactive); GI50 [44]: > 100 µM (inactive); GI50 [45]: 36.1 µM (inactive); GI50 [46]: 85.7 µM (inactive); GI50 [47]: 30.1 µM (inactive); GI50 [48]: 22.8 µM (inactive); GI50 [49]: 17.5 µM (inactive); GI50 [50]: 54.3 µM (inactive); GI50 [51]: 96.2 µM (inactive); GI50 [52]: 42.4 µM (inactive); GI50 [53]: 45.2 µM (inactive); GI50 [54]: > 100 µM (inactive); GI50 [55]: 44.5 µM; GI50 [56]: 78.7 µM (inactive); GI50 [57]: 69.8 µM (inactive)

For `Nc1c(C(=O)O)nnc2cc(Cl)c(Cl)cc12`, which GI50 [1] is on record?
The GI50 was > 100 µM (inactive).

What about the GI50 [2] of the same compound?
Its GI50 is > 100 µM (inactive).

What about the GI50 [3] of the same compound?
The GI50 was > 100 µM (inactive).

What about the GI50 [4] of the same compound?
Its GI50 is > 100 µM (inactive).

And the GI50 [5]?
Its GI50 is > 100 µM (inactive).

And the GI50 [6]?
The GI50 was > 100 µM (inactive).

And the GI50 [7]?
Its GI50 is > 100 µM (inactive).

What about the GI50 [8] of the same compound?
The GI50 was > 100 µM (inactive).

And the GI50 [9]?
The GI50 was > 100 µM (inactive).

What about the GI50 [10] of the same compound?
Its GI50 is > 100 µM (inactive).

And the GI50 [11]?
The GI50 was > 100 µM (inactive).

What about the GI50 [12] of the same compound?
Its GI50 is > 100 µM (inactive).

And the GI50 [13]?
The GI50 was 91 µM (inactive).

What about the GI50 [14] of the same compound?
Its GI50 is > 100 µM (inactive).

And the GI50 [15]?
The GI50 was > 100 µM (inactive).

And the GI50 [16]?
Its GI50 is > 100 µM (inactive).

What about the GI50 [17] of the same compound?
The GI50 was > 100 µM (inactive).

And the GI50 [18]?
The GI50 was > 100 µM (inactive).

And the GI50 [19]?
The GI50 was > 100 µM (inactive).

And the GI50 [20]?
The GI50 was > 100 µM (inactive).

What about the GI50 [21] of the same compound?
Its GI50 is > 100 µM (inactive).

And the GI50 [22]?
Its GI50 is > 100 µM (inactive).

What about the GI50 [23] of the same compound?
The GI50 was > 100 µM (inactive).

What about the GI50 [24] of the same compound?
Its GI50 is > 100 µM (inactive).

And the GI50 [25]?
The GI50 was 47.8 µM (inactive).

What about the GI50 [26] of the same compound?
Its GI50 is > 100 µM (inactive).

What about the GI50 [27] of the same compound?
Its GI50 is > 100 µM (inactive).

And the GI50 [28]?
Its GI50 is > 100 µM (inactive).

What about the GI50 [29] of the same compound?
Its GI50 is > 100 µM (inactive).

What about the GI50 [30] of the same compound?
The GI50 was > 100 µM (inactive).

And the GI50 [31]?
The GI50 was > 100 µM (inactive).

And the GI50 [32]?
The GI50 was > 100 µM (inactive).

And the GI50 [33]?
Its GI50 is > 100 µM (inactive).

What about the GI50 [34] of the same compound?
Its GI50 is 56.9 µM (inactive).

And the GI50 [35]?
Its GI50 is > 100 µM (inactive).

What about the GI50 [36] of the same compound?
Its GI50 is > 100 µM (inactive).

What about the GI50 [38] of the same compound?
Its GI50 is > 100 µM (inactive).

And the GI50 [39]?
The GI50 was > 100 µM (inactive).

And the GI50 [40]?
The GI50 was 82 µM (inactive).

What about the GI50 [41] of the same compound?
Its GI50 is > 100 µM (inactive).

And the GI50 [58]?
The GI50 was > 100 µM (inactive).

What about the GI50 [42] of the same compound?
Its GI50 is > 100 µM (inactive).

What about the GI50 [44] of the same compound?
Its GI50 is > 100 µM (inactive).

And the GI50 [45]?
Its GI50 is > 100 µM (inactive).

What about the GI50 [46] of the same compound?
Its GI50 is > 100 µM (inactive).

What about the GI50 [47] of the same compound?
The GI50 was > 100 µM (inactive).

And the GI50 [48]?
The GI50 was 72.6 µM (inactive).

What about the GI50 [49] of the same compound?
The GI50 was > 100 µM (inactive).

And the GI50 [50]?
The GI50 was 57 µM (inactive).

What about the GI50 [51] of the same compound?
Its GI50 is > 100 µM (inactive).

And the GI50 [52]?
The GI50 was > 100 µM (inactive).

What about the GI50 [53] of the same compound?
Its GI50 is > 100 µM (inactive).

And the GI50 [54]?
The GI50 was > 100 µM (inactive).

What about the GI50 [55] of the same compound?
The GI50 was over 100 µM.

And the GI50 [56]?
The GI50 was > 100 µM (inactive).

What about the GI50 [57] of the same compound?
The GI50 was > 100 µM (inactive).
